Source: BindingDB's records for doi:10.3109/14756366.2012.681650 (East China University of Science and Technology, 2013)
Several values for one entry are separate records, joined by “and”; a condition that tells them apart may be missing. Equal values may be shown once.

Each compound was assayed against T1, Interstitial collagenase [100-268] (Homo sapiens, UniProt P03956) (assay: cd-MMP-1 Activity Assay). Settings: pH 7.5.
T1 construct: 100-268
T1 sequence (P03956 whole entry): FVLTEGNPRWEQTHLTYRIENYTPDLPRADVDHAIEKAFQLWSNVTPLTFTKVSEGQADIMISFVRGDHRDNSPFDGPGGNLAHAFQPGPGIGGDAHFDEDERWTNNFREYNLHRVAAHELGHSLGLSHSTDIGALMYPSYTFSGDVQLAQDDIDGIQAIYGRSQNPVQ
Procedure: The activity of cd-MMP-1 was measured using a fluorescence-based assay. It was performed in white 96-well half area microplate (Greiner) in a final volume of 100 μL. […] The reaction was initiated by the addition of 50 μl of quenched fluorogenic peptide substrate: Dnp-Pro-beta-cyclohexyl-Ala-Gly-Cys(Me)-His-Ala-Lys(Nma)-NH2 (final concentration 5 μM). The cd-MMP-1 activity was determined in an Synergy™ 2 Multi-Mode Microplate Reader(BioTek) at an excitation wavelength of 360 nm and an emission wavelength of 460 nm.

Row | Structure (SMILES) | IC50
1 | O=c1c(O)c(-c2cc(O)c(O)c(O)c2)oc2cc(O)cc(O)c12 | 2920 nM
2 | O=c1cc(-c2ccc(O)c(O)c2)oc2cc(O)cc(O)c12 [2-(3,4-dihydroxyphenyl)-5,7-dihydroxy-4H-chromen-4-one] | 3030 nM
3 | CNC(=O)C(CCc1ccccc1)NC(=O)C(CC(=O)NO)CC(C)C (stereo unspecified) | 10 nM

Now from value to compound:

Row | IC50 | Structure (SMILES)
4 | 4850 nM | O=c1c(O)c(-c2ccc(O)cc2O)oc2cc(O)cc(O)c12 [2-(2,4-dihydroxyphenyl)-3,5,7-trihydroxychromen-4-one]
5 | 13 nM | COc1ccc(S(=O)(=O)N2CC(C)(C)CN(S(=O)(=O)c3ccc(OC)cc3)C2C(=O)NO)cc1 [1,3-BIS-(4-METHOXY-BENZENESULFONYL)-5,5-DIMETHYL-HEXAHYDRO-PYRIMIDINE-2-CARBOXYLIC ACID HYDROXYAMIDE]
6 | 1350 nM and 3920 nM | O=c1c(O)c(-c2ccc(O)cc2)oc2cc(O)cc(O)c12
